Test systems include 786-0; CAKI-1; CCRF-CEM; COLO 205; DU-145; EKVX; Hs-578T; K562; MDA-MB-435; MDA-N; NCI-H460; NCI/ADR-RES; OVCAR-3; RPMI-8226; SF-539; SNB-75; T47D; TK-10; UACC-62; UO-31.
Holding throughout (experiment): growth of human tumour cells (NCI), 48 h

Data on ten molecules can be found in ChEMBL document CHEMBL1201862, “PubChem BioAssay data set” (2004).

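Dose response: 5 concentrations. Exposure: 48 h. Format: 96-well plates. Endpoint: linear interpolation; highest concentration if not reached. GI50 = concentration required for 50% inhibition of growth.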 The source made the active and inactive calls. No stated cut-off is given here; in the data, active = GI50 up to about 1.1 µM and inactive = higher. Bounds are passed on as bounds.

As to `C[C@]12CC[C@H](O)CC1=CC[C@@H]1[C@@H]2CC[C@]2(C)C(=O)[C@@H](N3CCOCC3)C[C@@H]12`, the GI50 in the test with 786-0 was > 100 µM (inactive); in the test on CAKI-1, 3.26 µM (inactive); in the test with CCRF-CEM it was 99.8 µM (inactive); in the test on COLO 205, > 100 µM (inactive); in the test with DU-145, > 100 µM (inactive); in the test on EKVX, 40.6 µM (inactive). Moreover, the GI50 with Hs-578T was 90.4 µM (inactive); in the test with K562, 89.3 µM (inactive); in the test on MDA-MB-435 it was > 100 µM (inactive); in the test on MDA-N, > 100 µM (inactive); in the test on NCI-H460 it was > 100 µM (inactive); with NCI/ADR-RES, 61.2 µM (inactive). Also, the GI50 was > 100 µM (inactive) in the test on OVCAR-3; 48.4 µM (inactive) with RPMI-8226; > 100 µM (inactive) in the test on SF-539; 30.6 µM (inactive) in the test on SNB-75; 31 µM (inactive) with T47D; > 100 µM (inactive) in the test on TK-10. For the same molecule, the GI50 is 76.4 µM (inactive) in the test on UACC-62 and > 100 µM (inactive) in the test with UO-31.

`O=C(OCc1ccccc1)C1(N2CN(C3(C(=O)OCc4ccccc4)CCCC3)CN(C3(C(=O)OCc4ccccc4)CCCC3)C2)CCCC1`: the GI50 with 786-0, in the test on CAKI-1, in the test on CCRF-CEM, in the test on COLO 205, in the test on DU-145 and with EKVX was > 10 µM (inactive) in each case. For the same molecule, the GI50 in the test with Hs-578T, in the test with K562, in the test with MDA-MB-435, with MDA-N, in the test with NCI-H460 and in the test with NCI/ADR-RES was > 10 µM (inactive) each time. Further, the GI50 with OVCAR-3, in the test with RPMI-8226, in the test on SF-539, in the test with SNB-75, with T47D and in the test with TK-10 was > 10 µM (inactive) in each case. The GI50 with UACC-62 and with UO-31 was > 10 µM (inactive) in each case.

With `COc1ccc2nc3cc(Cl)ccc3c(Nc3ccc(O)c(CN4CCN(C)CC4)c3)c2c1`, the GI50 was 1.5 µM (inactive) in the test on 786-0; 1.92 µM (inactive) with CAKI-1; 0.276 µM (active) in the test with CCRF-CEM; 1.63 µM (inactive) in the test on COLO 205; 1.9 µM (inactive) with DU-145; 1.74 µM (inactive) in the test with EKVX. The GI50 was 1.89 µM (inactive) in the test with Hs-578T; 1.59 µM (inactive) with K562; 1.62 µM (inactive) with MDA-MB-435; 1.67 µM (inactive) in the test with MDA-N; 1.72 µM (inactive) with NCI-H460; 2.08 µM (inactive) with NCI/ADR-RES. Also, the GI50 in the test on OVCAR-3 is 1.92 µM (inactive); in the test on RPMI-8226 it was 1.9 µM (inactive); with SF-539, 1.79 µM (inactive); in the test on SNB-75, 1.62 µM (inactive); with T47D, 2.09 µM (inactive); in the test with TK-10, 1.97 µM (inactive). Also, the figures for the GI50 in the test on UACC-62 and in the test on UO-31 were 1.72 µM (inactive) and 1.9 µM (inactive), respectively.

Consider `COc1cc(S(=O)(=O)Nc2ccc(-c3csc(/N=C\C=C\c4ccccc4)n3)cc2)ccc1Cl`, for which the GI50 is > 100 µM (inactive) in the test with 786-0; > 100 µM (inactive) in the test on CAKI-1; 17.5 µM (inactive) in the test on CCRF-CEM; 36.7 µM (inactive) in the test on COLO 205; 45.5 µM (inactive) in the test on DU-145; 36.9 µM (inactive) in the test with EKVX. Also, the GI50 is 87.3 µM (inactive) in the test on Hs-578T; 31.2 µM (inactive) in the test on K562; > 100 µM (inactive) in the test with MDA-MB-435; > 100 µM (inactive) in the test with MDA-N; 0.0484 µM (active) in the test with NCI-H460; 59 µM (inactive) in the test on NCI/ADR-RES. The GI50 with OVCAR-3 was > 100 µM (inactive); with RPMI-8226, 27.3 µM (inactive); with SF-539, 22 µM (inactive); in the test on SNB-75 it was > 100 µM (inactive); with T47D, 26.6 µM (inactive); in the test with TK-10, 42.2 µM (inactive). Further, the GI50 in the test on UACC-62 is 37.9 µM (inactive); with UO-31, 44.5 µM (inactive).

Turning to `CN1c2ccccc2C2=C(c3ccccc3)CC[C@@H](C(=O)N3C4CC5CC[C@@]4(CS3(=O)=O)C5(C)C)[C@@H]21` (stereo not given in full), the GI50 with 786-0, in the test on CAKI-1, in the test on CCRF-CEM, in the test on COLO 205, in the test on DU-145 and in the test on EKVX was > 100 µM (inactive) each time. Moreover, the GI50 was > 100 µM (inactive) in the test on Hs-578T; 10.5 µM (inactive) in the test with K562; > 100 µM (inactive) in the test on MDA-MB-435; > 100 µM (inactive) in the test with MDA-N; > 100 µM (inactive) with NCI-H460; > 100 µM (inactive) in the test with NCI/ADR-RES. Moreover, the GI50 in the test on OVCAR-3, in the test on RPMI-8226, in the test with SF-539, in the test on SNB-75, in the test with T47D and with TK-10 was > 100 µM (inactive) throughout. For the same molecule, the GI50 in the test on UACC-62 and in the test on UO-31 was > 100 µM (inactive) throughout.

As to `COC(=O)C1=C(C)N2[C@H](C(=O)O)CS[C@@]2(C)[C@H](C(=O)OC)[C@H]1c1cccc([N+](=O)[O-])c1`, the GI50 in the test on 786-0, in the test on CAKI-1, in the test on CCRF-CEM, with COLO 205, in the test with DU-145 and in the test on EKVX was > 100 µM (inactive) throughout. The GI50 in the test with Hs-578T, in the test on K562, with MDA-MB-435, in the test on MDA-N, in the test on NCI-H460 and with NCI/ADR-RES was > 100 µM (inactive) throughout. Moreover, the GI50 in the test with OVCAR-3, in the test with RPMI-8226, with SF-539, in the test with SNB-75, in the test on T47D and in the test on TK-10 was > 100 µM (inactive) throughout. The GI50 with UACC-62 and with UO-31 was > 100 µM (inactive) in each case.

Take `O=C(O)CC1(CC(=O)O)Nc2ccccc2SC1=O`: the GI50 with 786-0, in the test with CAKI-1, in the test with CCRF-CEM, with COLO 205, in the test on DU-145 and in the test with EKVX was > 100 µM (inactive) each time. The GI50 in the test with Hs-578T, with K562, with MDA-MB-435, with MDA-N, in the test on NCI-H460 and in the test with NCI/ADR-RES was > 100 µM (inactive) throughout. Also, the GI50 in the test on OVCAR-3 is > 100 µM (inactive); in the test with RPMI-8226 it was > 100 µM (inactive); with SF-539, 0.0904 µM (active); in the test on SNB-75, > 100 µM (inactive); with T47D it was > 100 µM (inactive); in the test on TK-10, > 100 µM (inactive). In addition, the GI50 with UACC-62 and in the test on UO-31 was > 100 µM (inactive) each time.

On to `COC(=O)Cc1c(-c2[nH]c3ccccc3c2CC(=O)OC)[nH]c2ccccc12`, for which the GI50 in the test with 786-0 is 33.7 µM (inactive); in the test on CAKI-1 it was > 37.2 µM (inactive); in the test with CCRF-CEM, > 25.2 µM (inactive); with COLO 205, > 53 µM (inactive); with DU-145, > 53 µM (inactive); in the test with EKVX, 39.4 µM (inactive). The GI50 was > 68.4 µM (inactive) in the test on Hs-578T; 27.7 µM (inactive) with K562; > 54 µM (inactive) in the test on MDA-MB-435; > 53.8 µM (inactive) in the test on MDA-N; > 63 µM (inactive) in the test on NCI-H460; > 57.3 µM (inactive) in the test with NCI/ADR-RES. For the same molecule, the GI50 with OVCAR-3 is 1.41 µM (inactive); in the test with RPMI-8226 it was > 37.7 µM (inactive); in the test on SF-539, 67.5 µM (inactive); with SNB-75 it was > 57.4 µM (inactive); with T47D it was 2.13 µM (inactive); with TK-10, > 53.2 µM (inactive). Besides, the figures for the GI50 with UACC-62 and in the test on UO-31 were > 49 µM (inactive) and > 55.3 µM (inactive), respectively.

For the molecule `COc1ccc(C2CC(C)(O)Oc3cc4c(cc32)OCO4)cc1` (stereo not given), the GI50 in the test on 786-0 was 37.2 µM (inactive); in the test on CAKI-1, 41.7 µM (inactive); in the test on CCRF-CEM it was 19.3 µM (inactive); with COLO 205, 19.7 µM (inactive); in the test on DU-145, 61.2 µM (inactive); in the test with EKVX, 40.2 µM (inactive). In addition, the GI50 is 26.6 µM (inactive) in the test on Hs-578T; 15.2 µM (inactive) in the test on K562; 7.14 µM (inactive) in the test with MDA-MB-435; 10.5 µM (inactive) with MDA-N; 31.4 µM (inactive) in the test on NCI-H460; 23.3 µM (inactive) in the test with NCI/ADR-RES. For the same molecule, the GI50 with OVCAR-3 was 32.3 µM (inactive); in the test with RPMI-8226, 27.4 µM (inactive); in the test on SF-539, 38.9 µM (inactive); in the test on SNB-75, 29.7 µM (inactive); in the test on T47D, 2.02 µM (inactive); in the test on TK-10 it was 36.1 µM (inactive). Further, the GI50 in the test on UACC-62 was 36.9 µM (inactive); with UO-31, 37.1 µM (inactive).

In the case of `Cc1nnc(SCc2nc(C#N)c(C#N)nc2CSc2nnc(C)s2)s1`, the GI50 was 9.48 µM (inactive) in the test on 786-0; 5.74 µM (inactive) with CAKI-1; 1.98 µM (inactive) with CCRF-CEM; 11.5 µM (inactive) with COLO 205; 14.5 µM (inactive) with DU-145; 14.7 µM (inactive) in the test on EKVX. For the same molecule, the GI50 is 17.1 µM (inactive) in the test with Hs-578T; 4.37 µM (inactive) in the test on K562; 8.63 µM (inactive) in the test on MDA-MB-435; 17.6 µM (inactive) in the test on MDA-N; 24.2 µM (inactive) in the test with NCI-H460; 30.6 µM (inactive) with NCI/ADR-RES. In addition, the GI50 with OVCAR-3 was 6.78 µM (inactive); in the test with RPMI-8226, 2.93 µM (inactive); in the test with SF-539, 19.6 µM (inactive); in the test with SNB-75 it was 19.8 µM (inactive); in the test with T47D, 5.73 µM (inactive); with TK-10 it was 6.82 µM (inactive). In addition, the figures for the GI50 in the test with UACC-62 and in the test on UO-31 were 15.8 µM (inactive) and 8.49 µM (inactive), respectively.
